{"source": "paper PMC9668914", "about": "“Understanding VPAC receptor family peptide binding and selectivity” (Nature Communications, 2022)", "origin": "cited, not measured here", "target": "T1, PAC1R (Homo sapiens, UniProt P41586)", "T1 construct": "An HA signal peptide was inserted in place of the native signal peptide of the receptors; HA signal peptide (replaces the native signal peptide) (N); 3C protease cleavage sites (between FLAG and receptor, and between receptor and His) (internal); expressed in transfected cells; host or cells: COS-7 (transient, PEI)", "T1 sequence (P41586 21-468)": "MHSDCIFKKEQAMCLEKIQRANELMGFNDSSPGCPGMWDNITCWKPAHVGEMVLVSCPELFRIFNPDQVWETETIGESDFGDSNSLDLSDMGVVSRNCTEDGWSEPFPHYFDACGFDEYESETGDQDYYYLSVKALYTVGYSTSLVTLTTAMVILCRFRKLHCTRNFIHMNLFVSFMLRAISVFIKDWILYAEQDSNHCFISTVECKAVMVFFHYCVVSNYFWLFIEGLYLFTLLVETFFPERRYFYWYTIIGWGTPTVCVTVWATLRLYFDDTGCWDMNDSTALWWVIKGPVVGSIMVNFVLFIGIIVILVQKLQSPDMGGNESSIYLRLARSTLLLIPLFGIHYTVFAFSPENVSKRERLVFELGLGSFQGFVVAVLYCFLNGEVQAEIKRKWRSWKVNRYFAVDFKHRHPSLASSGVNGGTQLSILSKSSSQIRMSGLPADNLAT", "design": "method as in PMID 8995389", "conditions": "cited from earlier work", "data": [{"substance": "maxadilan", "values": [{"measurement": "agonist selectivity", "value": "PAC1R-selective agonist"}]}]}
